Reference: US4469795A, “Radioassay for monosialoglycosphingolipid (GM1) ganglioside concentration” (priority 1981, dated 1984)

System: iodotoxin binding to liver membranes
Set-up: species or system rat

| Substance | inhibition of liver membrane toxin binding | time until binding of iodotoxin to GM1 ganglioside is complete | inhibition of iodotoxin binding to liver membranes by the unlabelled enterotoxin | reversal of inhibition of iodotoxin binding to liver membranes |
| --- | --- | --- | --- | --- |
| monosialoglycosphingolipid GM1 ganglioside | greater than 94% | thirty | – | – |
| cholera toxin | – | – | did not occur | greater than 92% |
